Some test systems named below: A498 renal; A549 NSCLC; CCRF-CEM leukemia; DU-145 prostate; EKVX NSCLC; HCC-2998 colon; HOP-62 NSCLC; M14 melanoma; MCF7 breast; MDA-MB-435; NCI-H226 lung; OVCAR-5 ovarian; SF-539 CNS; SK-MEL-28 melanoma; SK-MEL-5 melanoma; RXF 393 renal.
Common to all, as to experiment: NCI anticancer screen, dose series, 48 h

SMILES strings stand for the structures.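 Values below derive from 48-hour exposures of cells grown in 96-well plates, with endpoints linearly interpolated between the two concentrations bracketing the appropriate inhibition level. GI50 = concentration required for 50% inhibition of growth. Definition used: TGI = concentration required for complete inhibition of growth.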 Some results are limits rather than exact numbers.

As to `Cn1c(=O)cc(NNc2ccc(Br)cc2)[nH]c1=O`, the TGI in the test on A498 renal is over 100 µM; in the test with A549 NSCLC it was 29.8 µM; in the test on CCRF-CEM leukemia it was over 100 µM; with DU-145 prostate, 19.3 µM; with EKVX NSCLC, 37.5 µM; in the test on HCC-2998 colon, 13.9 µM. Besides, the TGI in the test with HOP-62 NSCLC turned out to be 29.5 µM; in the test on M14 melanoma, 33.4 µM; in the test with MCF7 breast, 26.8 µM; in the test with MDA-MB-435, 25.3 µM; in the test with NCI-H226 lung it was 39.1 µM; with OVCAR-5 ovarian, 26.2 µM. For the same compound, the TGI was 8.14 µM with SF-539 CNS, 34.7 µM in the test with SK-MEL-28 melanoma and 30.2 µM in the test with SK-MEL-5 melanoma.
`CC(=O)c1c2c(cc3c1CC1(Cc4cc5c(cc4C1=O)CCC5)C3)CCC2` (configuration not stated): the TGI with A498 renal was over 100 µM; in the test on A549 NSCLC, over 100 µM; in the test on CCRF-CEM leukemia, over 73.7 µM; in the test with DU-145 prostate, over 100 µM; in the test with EKVX NSCLC, over 100 µM; in the test with HCC-2998 colon, over 100 µM. The TGI with HOP-62 NSCLC, in the test with M14 melanoma, with MCF7 breast, in the test on MDA-MB-435, with NCI-H226 lung and in the test with OVCAR-5 ovarian was over 100 µM in each case. In addition, the TGI is over 100 µM with SF-539 CNS, over 100 µM with SK-MEL-28 melanoma and over 69.4 µM in the test on SK-MEL-5 melanoma.
Regarding `c1ccc2c(c1)ccc1ncccc12`, the TGI in the test on A498 renal, in the test with A549 NSCLC, with DU-145 prostate, in the test on EKVX NSCLC, in the test on HCC-2998 colon and with HOP-62 NSCLC was over 100 µM throughout. For the same compound, the TGI in the test with M14 melanoma, in the test on MCF7 breast, in the test with MDA-MB-435, in the test with NCI-H226 lung, in the test with OVCAR-5 ovarian and in the test with RXF 393 renal was over 100 µM each time. Further, the TGI in the test on SF-539 CNS, in the test with SK-MEL-28 melanoma and with SK-MEL-5 melanoma was over 100 µM in each case.
For the compound `O=c1n(CCCN2CCN(c3cccc(Cl)c3)CC2)nc2n1-c1ccc3ccccc3c1SC2`, the TGI in the test on A498 renal, with A549 NSCLC, in the test on CCRF-CEM leukemia, in the test on DU-145 prostate, with EKVX NSCLC and with HOP-62 NSCLC was over 100 µM each time. Besides, the TGI in the test with MCF7 breast, with MDA-MB-435, with NCI-H226 lung, in the test on OVCAR-5 ovarian, with RXF 393 renal and in the test with SF-539 CNS was over 100 µM throughout. Besides, the TGI in the test on SK-MEL-28 melanoma and with SK-MEL-5 melanoma was over 100 µM throughout.
As to `CC(=O)Nc1ccc2c3c(cc(O)c2c1)N(C(=O)CCCC(=O)Nc1ccc2c4c(cc(O)c2c1)N(C(=O)OC(C)(C)C)CC4CCl)CC3CCl` (configuration not stated), the TGI in the test with A498 renal was 2.63 µM; with A549 NSCLC it was over 50 µM; with CCRF-CEM leukemia, 0.599 µM; in the test with DU-145 prostate, over 50 µM; in the test on EKVX NSCLC it was over 35.3 µM; in the test with HCC-2998 colon it was 1.91 µM. The TGI in the test with HOP-62 NSCLC is over 25.2 µM; in the test with M14 melanoma it was 13.2 µM; in the test on MCF7 breast, over 16.3 µM; in the test on MDA-MB-435, 2 µM; with OVCAR-5 ovarian, over 15.4 µM; in the test on RXF 393 renal, 10.6 µM. In addition, the TGI with SF-539 CNS is over 50 µM; in the test on SK-MEL-28 melanoma it was over 13 µM; in the test with SK-MEL-5 melanoma, over 11.6 µM.
Take `C/C(O)=C(/C=N\C(=S)Nc1ccc(Cl)c(Cl)c1)C(=O)Nc1ccccc1C`: the TGI with A498 renal is 79.6 µM; with A549 NSCLC, over 100 µM; in the test on DU-145 prostate it was 92 µM; in the test with EKVX NSCLC, over 100 µM; in the test on HCC-2998 colon it was over 100 µM; in the test with HOP-62 NSCLC, over 100 µM. In addition, the TGI in the test with M14 melanoma is over 100 µM; with MCF7 breast, over 100 µM; in the test with MDA-MB-435, over 100 µM; with NCI-H226 lung, 88.7 µM; with OVCAR-5 ovarian it was over 100 µM; with RXF 393 renal, over 100 µM. Besides, the TGI is over 100 µM with SF-539 CNS, over 100 µM in the test with SK-MEL-28 melanoma and 44 µM in the test on SK-MEL-5 melanoma.
Take `O=C(O)CN1CCNCCN(CC(=O)O)CCNCC1`: the TGI in the test on A498 renal, with A549 NSCLC, in the test on CCRF-CEM leukemia, in the test with DU-145 prostate, in the test on EKVX NSCLC and in the test on HCC-2998 colon was over 100 µM in each case. The TGI in the test with HOP-62 NSCLC, in the test on M14 melanoma, in the test on MCF7 breast, in the test with MDA-MB-435, in the test on NCI-H226 lung and with OVCAR-5 ovarian was over 100 µM each time. Further, the TGI with RXF 393 renal was over 100 µM; in the test with SF-539 CNS, over 100 µM; in the test with SK-MEL-5 melanoma it was 21.9 µM.
As for `COc1cc(CNc2nc3ccccc3nc2-c2cccs2)cc(OC)c1OC`, the TGI in the test on A498 renal is over 100 µM; in the test with A549 NSCLC it was over 100 µM; in the test on CCRF-CEM leukemia it was 52.2 µM; in the test with DU-145 prostate, over 100 µM; in the test with EKVX NSCLC, over 100 µM; with HCC-2998 colon it was over 100 µM. The TGI with HOP-62 NSCLC was over 100 µM; with MCF7 breast, over 100 µM; in the test with MDA-MB-435, over 100 µM; in the test on NCI-H226 lung, 97.7 µM; with OVCAR-5 ovarian, over 100 µM; with RXF 393 renal, over 100 µM. The TGI was over 100 µM in the test on SF-539 CNS, over 100 µM in the test with SK-MEL-28 melanoma and 28.8 µM with SK-MEL-5 melanoma.
As for `CCCCCCNC(=O)c1cc(C#Cc2cc(OC)ccc2OC)ccc1OC`, the TGI in the test on A498 renal is over 100 µM; with A549 NSCLC, over 100 µM; with CCRF-CEM leukemia, over 100 µM; in the test with DU-145 prostate, over 100 µM; in the test with EKVX NSCLC, over 100 µM; in the test with HCC-2998 colon, 6.25 µM. For the same compound, the TGI in the test with HOP-62 NSCLC was over 100 µM; in the test with M14 melanoma, over 100 µM; in the test with MCF7 breast, over 100 µM; with MDA-MB-435 it was 13.4 µM; with OVCAR-5 ovarian, over 100 µM; in the test with SF-539 CNS it was over 100 µM. The TGI with SK-MEL-28 melanoma and in the test with SK-MEL-5 melanoma was over 100 µM throughout. Also, the GI50 with CCRF-CEM leukemia was 7.9 µM; in the test with DU-145 prostate it was over 100 µM; with HOP-62 NSCLC it was 11.8 µM; in the test on SF-539 CNS, over 100 µM.
